PMC3900681, “Flock House Virus RNA Polymerase Initiates RNA Synthesis De Novo and Possesses a Terminal Nucleotidyl Transferase Activity” (PLoS ONE, 2014)

Target: T1, FHV protein A (MBP-Pro A) (Flock House virus, UniProt Q66929)
T1 construct: N-terminal MBP fusion (pMAL-c2X, EcoRI-SalI), tag kept; E. coli, amylose resin; ~155 kDa
Experiment: RdRP assay, DIG-labelled RNA product on denaturing gel
Assay type: biochemical
Details: blocked (+)-RNA1_1-191 template, 250 uM DIG RNA Labelling Mix, 1 mM MnCl2, pH 8.0, 30 C, 90 min

T1 sequence (Q66929 whole entry, the tested form may be a part): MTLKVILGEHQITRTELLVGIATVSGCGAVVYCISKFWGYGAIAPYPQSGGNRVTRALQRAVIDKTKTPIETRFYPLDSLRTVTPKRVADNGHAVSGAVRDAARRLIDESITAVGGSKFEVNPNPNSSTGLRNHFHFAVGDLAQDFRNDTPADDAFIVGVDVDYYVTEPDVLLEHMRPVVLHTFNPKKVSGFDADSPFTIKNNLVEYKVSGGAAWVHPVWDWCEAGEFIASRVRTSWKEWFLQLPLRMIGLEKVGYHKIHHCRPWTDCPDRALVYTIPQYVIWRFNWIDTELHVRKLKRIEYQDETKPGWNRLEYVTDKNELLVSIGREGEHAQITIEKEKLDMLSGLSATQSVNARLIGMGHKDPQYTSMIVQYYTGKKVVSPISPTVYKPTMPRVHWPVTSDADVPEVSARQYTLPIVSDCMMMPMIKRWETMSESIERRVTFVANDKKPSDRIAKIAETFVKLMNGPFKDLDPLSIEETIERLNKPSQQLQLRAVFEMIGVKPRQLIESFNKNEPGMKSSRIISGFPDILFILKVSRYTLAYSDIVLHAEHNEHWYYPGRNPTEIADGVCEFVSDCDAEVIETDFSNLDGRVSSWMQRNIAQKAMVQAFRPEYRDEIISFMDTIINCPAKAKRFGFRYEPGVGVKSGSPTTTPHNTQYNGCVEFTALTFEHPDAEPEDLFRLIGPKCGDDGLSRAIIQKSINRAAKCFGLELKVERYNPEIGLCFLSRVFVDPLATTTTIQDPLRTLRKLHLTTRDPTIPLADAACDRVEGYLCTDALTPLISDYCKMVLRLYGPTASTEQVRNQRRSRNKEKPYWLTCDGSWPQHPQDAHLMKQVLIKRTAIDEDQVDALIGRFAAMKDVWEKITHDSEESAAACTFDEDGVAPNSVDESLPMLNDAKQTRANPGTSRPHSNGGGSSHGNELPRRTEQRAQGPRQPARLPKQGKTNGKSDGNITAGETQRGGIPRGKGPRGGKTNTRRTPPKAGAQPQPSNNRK

O=C(O)CP(=O)(O)O [PAA, phosphonoacetic acid]
inhibition, dose-response: PAA dramatically inhibited the RdRP activity of FHV protein A in a dose-response manner
